From PMC7531601, “Exploiting Lactoferricin (17–30) as a Potential Antimicrobial and Antibiofilm Candidate Against Multi-Drug-Resistant Enteroaggregative Escherichia coli” (Frontiers in Microbiology, 2020)
Converted amounts (≈) assume the structure as drawn.

Tests used:
MDR-EAEC isolates [1] = test: In vitro antibiotic susceptibility testing of MDR-EAEC isolates; type: cell-based, enteroaggregative Escherichia coli; set-up: key to Antibiotic Susceptibility testing / MIC Values (mg/L), given as class symbol: S – Sensitive; R- Resistant; conditions: for MIC: Escherichia coli
From the text: E. coli ATCC 25922 was used as the quality control strain for antibiotic susceptibility testing.

[2] = tested on: G. mellonella larvae infected with MDR-EAEC (a cocktail of three strains); test: G. mellonella larval survival; type: in vivo, Galleria mellonella; conditions: larvae infected with LD50 dose (10^6 CFU) of MDR-EAEC, MIC dose 3 h pi, up to 120 h pi, 40 larvae per group
Method: The final instar of G. mellonella larvae was utilized for performing the in vivo assays ([Morgan et al., 2014]). The larvae (ca. 200–250 mg) inoculated with aliquots of MDR-EAEC suspensions (10 μl) by injection using Hamilton syringe (26 gauge) via the last right pro-leg were incubated at 37°C and the observations were noted. The larvae kept in a sterile environment were provided with ad lib food during the experiment.
The determined LD50 dose for each MDR-EAEC strain in the larvae was validated and employed further in the in vivo experiments to evaluate the antibacterial efficacy of Lfcin (17–30).
Galleria mellonella larvae were grouped 40 per group for in vivo antimicrobial testing of Lfcin (17–30) as follows: group I (MDR-EAEC infection control), groups II and III (infection + treatment groups), group IV (PBS control), and group V [Lfcin(17–30) control]. Optimized LD50 dose of MDR-EAEC (a cocktail of three strains) was administered to larvae of groups I to III, while MIC dose of Lfcin (17–30) and Meropenem was administered 3 h post-infection (pi) in groups II and III, respectively. Larval group IV was injected with sterile PBS, whereas MIC dose of Lfcin (17–30) was administered in group V. […]

G. mellonella larvae = test: LDH cytotoxicity assay of larval haemolymph; type: in vivo, Galleria mellonella; conditions: infected larvae treated 3 h pi
Method: Galleria mellonella larvae were grouped 40 per group for in vivo antimicrobial testing of Lfcin (17–30) as follows: group I (MDR-EAEC infection control), groups II and III (infection + treatment groups), group IV (PBS control), and group V [Lfcin(17–30) control]. Optimized LD50 dose of MDR-EAEC (a cocktail of three strains) was administered to larvae of groups I to III, while MIC dose of Lfcin (17–30) and Meropenem was administered 3 h post-infection (pi) in groups II and III, respectively. Larval group IV was injected with sterile PBS, whereas MIC dose of Lfcin (17–30) was administered in group V.
The larvae were then observed for their survival rate, melanization (Supplementary Information S7), MDR-EAEC counts (Supplementary Information S8), hemocyte density (Supplementary Information S9) ([Wand et al., 2013]), lactate dehydrogenase (LDH) cytotoxicity assay (Supplementary Information S10) ([Gibreel and Upton, 2013]), and histopathology (Supplementary Information S11) ([Perdoni et al., 2014]), at an interval of 6 h till 24 h, followed by 24-h interval up to 120 h pi.
G. mellonella (n=3 larvae per group) were analysed for the production of LDH, as a marker of cell damage, at an interval of 6 h pi for 24 h, followed by 24 h interval till 96 h pi using QuantiChrom LDH cytotoxicity assay kit, according to the manufacturer’s instructions. The positive and negative controls used in this study were […]. The absorbance was read using ELISA plate reader at 500 nm; the haemolymph from untreated larvae served as background control and the cytotoxicity was calculated as, Cytotoxicity (%) = (ODSample - ODControl)/ (ODTotal Lysis - ODControl) x 100, wherein, sample is the control absorbance of treated cell; control is the experimental absorbance of the untreated cell control and total lysis is the absorbance of Triton X-100 treated cells.

MDR-EAEC isolates [3] = test: In vitro time-kill kinetics; type: cell-based, enteroaggregative Escherichia coli; conditions: 10 μg/ml, ca. 1 × 10^7 CFU/ml, CA-MH broth, 37°C
Method: The in vitro dose- and time-kill kinetics was assessed by co-incubating the log-phase cultures of each of MDR-EAEC isolates (ca. 1 × 10^7 CFU/ml) in cation-adjusted Mueller Hinton (CA-MH) broth with MIC (1 × and 2 × ) of Lfcin (17–30) (Supplementary Information S6). The desired inoculum for each MDR-EAEC strain and Lfcin (17–30) suspended in CA-MH broth was as follows: Group I, 10^7 CFU of MDR-EAEC (50 μl) with 1 × MIC of Lfcin (17–30) (50 μl); Group II, 10^7 CFU of MDR-EAEC (50 μl) with 2 × MIC of Lfcin (17–30) (50 μl); Group III, 10^7 CFU of MDR-EAEC (50 μl) with 10 μg/ml of Meropenem (50 μl); and Group IV, 10^7 CFU of MDR-EAEC (50 μl) in CA-MH broth (50 μl). The MDR-EAEC counts were enumerated ([Miles et al., 1938]) at 0, 30, 60, 90, 120, 150, and 180 min, and 24, 48, and 72 h post co-incubation.
FIGURE 2 Dose- and time-dependent time-kill assay of MDR-EAEC isolates co-cultured with Lfcin (17–30). MDR-EAEC isolates (n = 3) were co-cultured with 1 × MIC of Lfcin (17–30) (A) and 2 × MIC of Lfcin (17–30) (B) in CA-MH broth at 37°C under static conditions with respective controls of MDR-EAEC isolates (untreated and meropenem-treated). Data expressed as the mean ± standard deviation (log10CFU/ml) of three independent experiments (***P < 0.001). […]

Row | Compound | MIC (MDR-EAEC isolates [1]; KY941937.1 (MDR 2)) [µg/mL] | MIC (MDR-EAEC isolates [1]; KY941938.1 (MDR 3)) [µg/mL] | Antibiotic Susceptibility testing (MDR-EAEC isolates [1]; KY941936.1 (MDR 1)) | Antibiotic Susceptibility testing (MDR-EAEC isolates [1]; KY941937.1 (MDR 2)) | Antibiotic Susceptibility testing (MDR-EAEC isolates [1]; KY941938.1 (MDR 3)) | MIC Values (mg/L), given as class symbol (MDR-EAEC isolates [1]; KY941936.1 (MDR 1)) | MIC Values (mg/L), given as class symbol (MDR-EAEC isolates [1]; KY941937.1 (MDR 2)) | MIC Values (mg/L), given as class symbol (MDR-EAEC isolates [1]; KY941938.1 (MDR 3)) | also measured
1 | CC1(C)S[C@@H]2[C@H](NC(=O)[C@H](N)c3ccccc3)C(=O)N2[C@H]1C(=O)O [AMP, Ampicillin] | > 240 | > 240 | R | R | R | – | – | – | MIC (MDR-EAEC isolates [1]; KY941936.1 (MDR 1)): > 240 µg/mL
2 | O=C(O)c1cn(C2CC2)c2cc(N3CCNCC3)c(F)cc2c1=O [CIP, Ciprofloxacin] | 120 (≈ 362 µM) | 60 (≈ 181 µM) | S | R | R | – | – | – | –
3 | O=C(N[C@H](CO)[C@H](O)c1ccc([N+](=O)[O-])cc1)C(Cl)Cl [CL, Chloramphenicol] | – | – | S | S | S | S | S | S | –
4 | CO/N=C(\C(=O)N[C@@H]1C(=O)N2C(C(=O)O)=C(CSc3nc(=O)c(=O)[nH]n3C)CS[C@H]12)c1csc(N)n1 [CTR, Ceftriaxone] | > 240 | > 240 | S | R | R | S | – | – | –
5 | CNC(C)C1CCC(N)C(OC2C(N)CC(N)C(OC3OCC(C)(O)C(NC)C3O)C2O)O1 (stereo not drawn) [GEN, Gentamicin] | – | – | S | S | S | S | S | S | –
6 | C[C@@H](O)[C@H]1C(=O)N2C(C(=O)O)=C(SCCN=CN)C[C@H]12 [IMI, Imipenem] | – | – | S | S | S | S | S | S | –
7 | Cc1cc(NS(=O)(=O)c2ccc(N)cc2)no1 [SXT, Sulfamethoxazole] | – | – | R | S | R | – | – | – | –
8 | CN(C)[C@@H]1C(O)=C(C(N)=O)C(=O)[C@@]2(O)C(O)=C3C(=O)c4c(O)cccc4[C@@](C)(O)[C@H]3C[C@@H]12 [TE, Tetracycline] | 2 (≈ 4.5 µM) | 30 (≈ 67.5 µM) | R | R | R | – | – | – | MIC (MDR-EAEC isolates [1]; KY941936.1 (MDR 1)): 60 µg/mL (≈ 135 µM)
9 | C[C@@H](O)[C@H]1C(=O)N2C(C(=O)O)=C(S[C@@H]3CN[C@H](C(=O)N(C)C)C3)[C@H](C)[C@H]12 [meropenem, reference compound] | – | – | – | – | – | – | – | – | survival rate [2]: 85%; LDH cytotoxicity (G. mellonella larvae): Almost similar observations; reduction in bacterial counts at 30 min post-coincubation (MDR-EAEC isolates [3]): highly significant (P < 0.001) reduction; time post-coincubation after which complete inhibition (MDR-EAEC isolates [3]): 60 min
10 | Co-trimoxazole [COT] | – | – | R | R | R | – | – | – | MIC Values (MDR-EAEC isolates [1]; KY941936.1 (MDR 1)): >240 µg/mL; MIC Values (MDR-EAEC isolates [1]; KY941937.1 (MDR 2)): >240 µg/mL; MIC Values (MDR-EAEC isolates [1]; KY941938.1 (MDR 3)): >240 µg/mL
11 | Colistin sulphate | – | – | S | S | S | S | S | S | –
